The record followed here is PubChem BioAssay AID280 (DTP/NCI, 2004).

“And” between values parts separate entries of the source, which are not always exact repeats. Equal values may be shown once. Toxic doses and inconclusive results are not listed.

The assay deals with nude mice, LOX melanoma ip, survival T/C. The assay is described as follows: NCI In Vivo Anticancer Drug Screen. Data for tumor model Human Amelanotic Melanoma (LOX) (intraperitoneal) in NU/NU BALB/C (nude) mice. The following applies: endpoint: median survival time, higher = longer survival. The method, then:
The antitumor activity of compounds was measured in mice bearing transplantable tumors. Survival or tumor size were measured and the results are expressed as the measurement made in the treated group (T) divided by the measurement made in the vehicle treated control group (C). The tumor model used in this assay is Human Amelanotic Melanoma (LOX) (intraperitoneal) in NU/NU BALB/C (nude) mice

Setting [1] is: dose: 150.0 mg/kg/injection, schedule: Q04DX003 (ip), vehicle: saline with Tween-80.
Where [2] appears, read: dose: 300.0 mg/kg/injection, schedule: Q04DX003 (ip), vehicle: saline with Tween-80.
[3] abbreviates: dose: 12.5 mg/kg/injection, schedule: Q04DX003 (ip), vehicle: saline with Tween-80.
[4] abbreviates: dose: 50.0 mg/kg/injection, schedule: Q04DX003 (ip), vehicle: saline with Tween-80.
Where [5] appears, read: dose: 100.0 mg/kg/injection, schedule: Q04DX003 (ip), vehicle: saline with Tween-80.
Setting [6] is: dose: 15.0 mg/kg/injection, schedule: Q04DX003 (ip), vehicle: saline with Tween-80.
The mark [7] stands for this setting: dose: 30.0 mg/kg/injection, schedule: Q04DX003 (ip), vehicle: saline with Tween-80.
The mark [8] stands for this setting: dose: 60.0 mg/kg/injection, schedule: Q04DX003 (ip), vehicle: saline with Tween-80.

Consider `O=C(O)c1cc(C(=O)O)c(C(=O)O)cc1C(=O)O.[NH2-].[NH2-].[NH2-].[NH2-].[Pt+2].[Pt+2]`, for which the T/C runs as follows: (dose: 6.25 mg/kg/injection, schedule: Q04DX003 (ip), vehicle: water) 89 % of control; (dose: 12.5 mg/kg/injection, schedule: Q04DX003 (ip), vehicle: water) 104 % of control; (dose: 25.0 mg/kg/injection, schedule: Q04DX003 (ip), vehicle: water) 115 % of control; (dose: 50.0 mg/kg/injection, schedule: Q04DX003 (ip), vehicle: water) 115 % of control.
In the case of `CCN(CC)c1ccc2[nH]c3c(C(N)=O)cc(=O)c(=O)c=3oc2c1`, the T/C was 110 % of control under setting [1] and 96 % of control under setting [2].
Take `CN(C)C(=O)Nc1ccc(Cl)cc1`: the T/C (dose: 75.0 mg/kg/injection, schedule: Q04DX003 (ip), vehicle: suspension in saline) was 118 % of control; the T/C (dose: 150.0 mg/kg/injection, schedule: Q04DX003 (ip), vehicle: suspension in saline) is 102 % of control; the T/C (dose: 300.0 mg/kg/injection, schedule: Q04DX003 (ip), vehicle: suspension in saline) is 102 % of control; the T/C (dose: 600.0 mg/kg/injection, schedule: Q04DX003 (ip), vehicle: suspension in saline) was 102 % of control.
In the case of `COc1cc2c(c(OC)c1OC)-c1ccc(OC)c(=O)cc1[C@@H](NC(C)=O)CC2`, the T/C runs as follows: (dose: 0.13 mg/kg/injection, schedule: Q04DX003 (ip), vehicle: saline) 162 % of control; (dose: 0.25 mg/kg/injection, schedule: Q04DX003 (ip), vehicle: saline) 150 % of control and 179 % of control and 180 % of control; (dose: 0.5 mg/kg/injection, schedule: Q04DX003 (ip), vehicle: saline) 171 % of control and 197 % of control and 220 % of control; (dose: 1.0 mg/kg/injection, schedule: Q04DX003 (ip), vehicle: saline) 229 % of control and 232 % of control and 280 % of control; (dose: 2.0 mg/kg/injection, schedule: Q04DX003 (ip), vehicle: saline) 189 % of control and 222 % of control and 262 % of control; (dose: 4.0 mg/kg/injection, schedule: Q04DX003 (ip), vehicle: saline) 268 % of control.
As to `CC(=O)N(C)c1ccc(Nc2cc(C)[nH]c3ccc4ncnc4c23)cc1`, the T/C under setting [3] was 102 % of control; the T/C (dose: 36.0 mg/kg/injection, schedule: Q04DX003 (ip), vehicle: saline) is 101 % of control; the T/C under setting [4] was 99 % of control; the T/C (dose: 60.0 mg/kg/injection, schedule: Q04DX003 (ip), vehicle: saline) is 110 % of control; the T/C under setting [5] is 91 % of control; the T/C (dose: 100.0 mg/kg/injection, schedule: Q04DX003 (ip), vehicle: saline) is 100 % of control. Besides, where the note is “dose: 167.0 mg/kg/injection, schedule: Q04DX003 (ip), vehicle: saline”, the T/C is 94 % of control.
On to `O=C(O)Cc1cccc2c(=O)cc(-c3ccccc3)oc12`, for which the T/C runs as follows: (dose: 25.0 mg/kg/injection, schedule: Q04DX003 (ip), vehicle: sodium bicarbonate) 108 % of control; (dose: 50.0 mg/kg/injection, schedule: Q04DX003 (ip), vehicle: sodium bicarbonate) 119 % of control.
Consider `CN(C=O)C(C(=O)Nc1cccc2c(OC(=O)C(N(C)C=O)(N(C)C=O)N(C)C=O)c(N=Nc3ccc(S(=O)(=O)Nc4nccs4)cc3)cc(N=Nc3ccc(S(=O)(=O)Nc4nccs4)cc3)c12)(N(C)C=O)N(C)C=O` (tested in a mixture with another compound), for which the T/C by setting is: (dose: 75.0 mg/kg/injection, schedule: Q04DX003 (ip), vehicle: saline with Tween-80) 101 % of control; under setting [1], 99 % of control; under setting [2], 89 % of control; (dose: 600.0 mg/kg/injection, schedule: Q04DX003 (ip), vehicle: saline with Tween-80) 95 % of control; (dose: 1200.0 mg/kg/injection, schedule: Q04DX003 (ip), vehicle: saline with Tween-80) 93 % of control.
With `CC[C@]1(O)C[C@H]2CN(CCc3c([nH]c4ccccc34)[C@@](C(=O)OC)(c3cc4c(cc3OC)N(C)[C@H]3[C@@](O)(C(=O)OC)[C@H](OC(C)=O)[C@]5(CC)C=CCN6CC[C@]43[C@@H]65)C2)C1`, the T/C (dose: 0.44 mg/kg/injection, schedule: Q04DX003 (iv), vehicle: saline) was 107 % of control; the T/C (dose: 0.67 mg/kg/injection, schedule: Q04DX003 (ip), vehicle: saline) is 110 % of control and 203 % of control; the T/C (dose: 0.67 mg/kg/injection, schedule: Q04DX003 (iv), vehicle: saline) is 112 % of control; the T/C (dose: 1.7 mg/kg/injection, schedule: Q04DX003 (ip), vehicle: saline) was 123 % of control and 203 % of control; the T/C (dose: 1.7 mg/kg/injection, schedule: Q04DX003 (iv), vehicle: saline) is 188 % of control.
Take `CCCCN1C(=O)N(c2ccc(OCC)cc2)C2N(CCCC)C1C(C)(C)C2(C)C` (stereo not given): the T/C under setting [6] was 101 % of control; the T/C under setting [7] was 107 % of control; the T/C under setting [8] is 101 % of control and 102 % of control; the T/C (dose: 120.0 mg/kg/injection, schedule: Q04DX003 (ip), vehicle: saline with Tween-80) was 101 % of control; the T/C (dose: 240.0 mg/kg/injection, schedule: Q04DX003 (ip), vehicle: saline with Tween-80) is 98 % of control.
Consider `CN(C)CCC(=O)C(=Cc1ccc(O)cc1)C(=O)CCN(C)C`, for which the T/C reads like this: (dose: 18.75 mg/kg/injection, schedule: Q04DX003 (ip), vehicle: saline) 100 % of control; (dose: 37.5 mg/kg/injection, schedule: Q04DX003 (ip), vehicle: saline) 101 % of control; (dose: 75.0 mg/kg/injection, schedule: Q04DX003 (ip), vehicle: saline) 112 % of control; (dose: 150.0 mg/kg/injection, schedule: Q04DX003 (ip), vehicle: saline) 107 % of control; (dose: 300.0 mg/kg/injection, schedule: Q04DX003 (ip), vehicle: saline) 103 % of control.
Regarding `Cc1ccc2c(c1)n([O-])c1cc(Cl)ccc1[n+]2=O`, the T/C under setting [4] was 111 % of control; the T/C under setting [5] was 123 % of control; the T/C (dose: 172.0 mg/kg/injection, schedule: Q04DX003 (ip), vehicle: saline with Tween-80) was 116 % of control; the T/C (dose: 288.0 mg/kg/injection, schedule: Q04DX003 (ip), vehicle: saline with Tween-80) is 108 % of control; the T/C (dose: 400.0 mg/kg/injection, schedule: Q04DX003 (ip), vehicle: saline with Tween-80) is 111 % of control; the T/C (dose: 480.0 mg/kg/injection, schedule: Q04DX003 (ip), vehicle: saline with Tween-80) is 113 % of control. The T/C by setting is: (dose: 800.0 mg/kg/injection, schedule: Q04DX003 (ip), vehicle: saline with Tween-80) 107 % of control; (dose: 1333.0 mg/kg/injection, schedule: Q04DX003 (ip), vehicle: saline with Tween-80) 110 % of control.
For `CO[C@@]12[C@@H]3N[C@@H]3CN1C1=C(C(=O)C(NCC3CCCO3)=C(C)C1=O)[C@@H]2COC(N)=O` (stereo not given in full), the T/C runs as follows: (dose: 12.5 mg/kg/injection, schedule: Q04DX003 (ip), vehicle: distilled water + Tween-80) 154 % of control; (dose: 25.0 mg/kg/injection, schedule: Q04DX003 (ip), vehicle: distilled water + Tween-80) 160 % of control; (dose: 50.0 mg/kg/injection, schedule: Q04DX003 (ip), vehicle: distilled water + Tween-80) 215 % of control.
`Cc1cc(=NO)cc(C)n1O`: the T/C is 101 % of control (dose: 75.0 mg/kg/injection, schedule: Q04DX003 (ip), vehicle: distilled water + alcohol); 103 % of control (dose: 150.0 mg/kg/injection, schedule: Q04DX003 (ip), vehicle: distilled water + alcohol); 101 % of control (dose: 300.0 mg/kg/injection, schedule: Q04DX003 (ip), vehicle: distilled water + alcohol); 96 % of control (dose: 600.0 mg/kg/injection, schedule: Q04DX003 (ip), vehicle: distilled water + alcohol).
Take `[CH3][Sn]([CH3])([Cl])[S]CCN`: the T/C (dose: 6.25 mg/kg/injection, schedule: Q04DX003 (ip), vehicle: saline with Tween-80) was 101 % of control; the T/C under setting [3] is 109 % of control; the T/C (dose: 25.0 mg/kg/injection, schedule: Q04DX003 (ip), vehicle: saline with Tween-80) was 105 % of control; the T/C under setting [4] was 115 % of control; the T/C under setting [5] is 103 % of control.
Take `CC(O)C1(O)C(O)CC(OC2c3cc4c(c(O)c3[C@@H]3C[C@@]2(C)OC32C=c3cc[nH]c3=N2)C(=O)c2cccc(O)c2C4=O)OC1C` (stereo not given in full): the T/C was 108 % of control (dose: 3.75 mg/kg/injection, schedule: Q04DX003 (ip), vehicle: saline with Tween-80); 112 % of control (dose: 7.5 mg/kg/injection, schedule: Q04DX003 (ip), vehicle: saline with Tween-80); 117 % of control under setting [6]; 117 % of control under setting [7]; 91 % of control under setting [8].
